What was measured:
[1] = test system: deubiquitinating enzymes (DUBs); assay: DUB activity (Z-LRGG-AMC cleavage) in lysates of treated MM.1S cells; format: cell-based; conditions: for Vmax / effect on DUB activity vs DMSO control / Km / n (Hill coefficient): 16 h; for effect of increasing concentration on DUB activity (normalized Vmax): 1, 10, 30 μg/mL, regression fit
Description: (§1) OPM2 cells were maintained in RPMI 1640 media supplemented with 12% FBS, 21.8 mM glucose, 8.6 mM HEPES (pH 7.4) and 1.0 mM sodium pyruvate. MM.1S cell line were maintained in RPMI 1640 media supplemented with 10% FBS. The cells were all cultured in T175 flasks (VWR, Radnor, Pa.). All media components were from Corning, Atlanta, Ga. unless otherwise noted. To test the effect of the ethanolic extract and bioactive compounds on DUB activity, cells were exposed to a 16-h pretreatment with 10 μg/mL of PMI-5011 and 1, 10, 30 μg/mL concentrations of DMC-1, DMC-2, KOE, and davidigenin before lysing the cells for experimentation. All compounds were reconstituted in DMSO to obtain stock concentrations, which was further diluted in culture media to obtain the desired experimental concentrations. For vehicle control, a subpopulation of cells was treated with pure DMSO diluted in a similar manner for the same duration. Upon treatment, cell lysates (both OPM2 and MM.1S) were generated by harvesting 1×10^6 cells/mL, followed by washing 2× and pelleting in phosphate buffered saline (PBS; 137 mM NaCl, 10 mM Na2HPO4, […], and 1.75 mM KH2PO4 at pH 7.4). The cell pellet was re-suspended in an approximately equivalent volume of M-PER to the volume of the cell pellet (1000-2000 μL) then vortexed for 10 min at room temperature. Following this, the mixture was centrifuged at 14,000×g for 15 min at 4° C. and the supernatant transferred to a centrifuge tube and stored on ice until use. Total protein concentration was determined using a NanoDrop 2000c (Thermo Scientific, Madison, Wis.).
(§2) The commercial DUB reporter, Z-LRGG-AMC (substrate) (SEQ ID NO: 1) was reconstituted in DMSO to obtain a final stock concentration of 1.44 mM. This stock reporter was diluted as needed in assay buffer (50 mM HEPES, pH 7.4, 150 mM NaCl, 2 mM DTT, and 0.02% Tween-20) supplemented with 4 mg/mL cell lysates (source of DUBs) to reach the desired reporter concentration with a final volume of 100 μL in a 96-well plate. OPM2 and MM.1S cell lysates from different treatments (10 μg/mL of PMI-5011; 1, 10, and 30 μg/mL of DMC-1, DMC-2, KOE, davidigenin and control vehicle DMSO) and C2C12 cell lysates were used to interrogate the effect of the ethanolic extract and selected bioactive compounds on DUB activity. Reporter only and lysates only (noise/background) samples were included in the 96-well plate to confirm that the rates observed were due to DUB-mediated hydrolysis initiated by the cell lysates. The 96-well plate was maintained at a temperature of 30° C. in the dark for the duration of the experiment. The fluorescence signals emitted as a result of DUB-mediated cleavage of AMC (λex=355 nm and λem=460 nm) were quantified using a Wallac 1420 VICTOR2 multilabel HTS counter fluorometry (Perkin Elmer (Waltham, Mass.). Readings were collected every 30 min for 6 h. The normalized signals were obtained by comparing the treatment with noise and background fluorescence values which were then statistically analyzed for their significance. Each data point represents triplicate data points from duplicate experiments. A calibration curve was generated for known concentrations of AMC to correlate the fluorescence signal (AU) to concentration (μM). The approximate concentration of free fluorophore was used to calculate reaction rates (μM/min) for each substrate concentration using linear regression analysis.
(§3) All data visualization, interpretation and curve-fittings were performed using Origin Pro (OriginLab, Northampton, MA) while statistical analyses of experimental data were carried out using SAS 9.4 (SAS Solutions). The analyses of enzyme-substrate reactions in all cell lysates started with scatter plotting the fluorometry signals (p,M) measured for each substrate concentration against time (min). Fluorescence signals measured for each substrate concentration remained stable during the first 30 min, indicating there was a 30-minute lag period before reaction initiation. […]

[2] = test system: deubiquitinating enzymes (DUBs); assay: DUB activity (Z-LRGG-AMC cleavage) in lysates of treated OPM2 cells; format: cell-based; conditions: for Vmax / effect on DUB activity vs DMSO control / Km / n (Hill coefficient): 16 h; for effect of increasing concentration on DUB activity (normalized Vmax): 1, 10, 30 μg/mL, regression fit
Description: as §1, §2, §3

[3] = MTT cellular viability assay, MM.1S; format: cell-based; conditions: human, MM.1S cells, read-out: percentage of viable cells
Description: (§4) The effect of PMI-5011 and bioactive compounds on the viability of cells was tested using a standard colorimetric MTT assay. The MTT Cell Proliferation Assay Kit was purchased from VWR, Radnor, Pa. MM.1S and OPM2 cells were treated with 10 μg/mL of PMI-5011 and 1, 10, and 30 μg/mL of DMC-1, DMC-2, KOE and davidigenin and plated at a density of 10^6 cells/mL in a 96-well plate with each well containing 250 μL of the sample. The plated cells were then incubated at 37° C. for 16 h. 10 μg/mL for PMI-5011 and a 16-h treatment period was used in this study based on previous findings by Yu et al.^24 Parallel plates were prepared for positive and negative solvent vehicle control with the same volume of DMSO and ethanol as for the treated cells. On the day of the experiment, the 96-well plates were centrifuged at 1000×g at 4° C. for 5 min in a microplate compatible centrifuge. The media was discarded and 50 μL of serum-free media and 50 μL of the MTT reagent were added into each well. For a background control, 50 μL of the MTT reagent was added into a well containing media only (no cells). The plate was incubated at 37° C. for 3 h in the dark. After incubation, 150 μL of the MTT solvent was added into each well. The plate was wrapped in a foil and placed on an orbital shaker for 15 min. Finally, the absorbance was measured at λex=544 nm and λem=590 nm using a Wallac 1420 VICTOR2 multilabel HTS counter fluorometry (Perkin Elmer (Waltham, Mass.). The percentage viable cells was obtained by Eq. 1.
(§5) % Viable Cells=S-N/C-N×100 (Eq. 1)
(§6) Where, S denotes raw absorbance values from samples, N denotes average absorbance value of the background control and C denotes the highest average absorbance value of positive vehicle control. The obtained percentage cytotoxicity values were then statistically analyzed for their significance. Each data point represents triplicate data points from duplicate experiments. The effect of PMI-5011 and the selected bioactive compounds on C2C12 cell viability has previously been reported.^24

[4] = MTT cellular viability assay, OPM2; format: cell-based; conditions: human, OPM2 cells, read-out: percentage of viable cells
Description: as §4, §5, §6

DUB = assay: Experiment 2: DUB reporter Z-LRGG-AMC with control, 5011, IU1 and KOE lysates; format: biochemical; conditions: lysate 4 mg/mL
Description: Peptide used was the commercial DUB reporter [Z-LRGG-AMC (SEQ ID NO: 1)] at multiple concentration [50-150 um]. 640 μL protein at 10 mg/mL for each set was given. Final protein concentration in micro-wells was 4 mg/mL. Peptide was incubated with control, 5011 treated, 25 uM IU1, 50 uM IU1 and KOE in DUB assay buffer. Fluorometric readings were taken at different time points in plate reader. Measured at [Em 460/Ex 355]. Fluorescent signals were converted to μM/min using a calibration curve for the AMC fluorophore. Rates were plotted vs. substrate concentration (Z-LRGG-AMC peptide (SEQ ID NO: 1)) (FIG. 7).

[5] = Table 2, OPM-2, 1 μg/mL, in µM/min
[6] = Table 2, OPM-2, 10 μg/mL, in µM/min
[7] = Table 2, OPM-2, 30 μg/mL, in µM/min

Structure (SMILES)	Vmax ([1]; 1 μg/mL) [µM/min]	effect on DUB activity vs DMSO control ([1]; 1 μg/mL)	Vmax ([1]; 10 μg/mL) [µM/min]	effect on DUB activity vs DMSO control ([1]; 10 μg/mL)	Vmax ([1]; 30 μg/mL) [µM/min]	effect on DUB activity vs DMSO control ([1]; 30 μg/mL)	effect of increasing concentration on DUB activity (normalized Vmax) [1]	Km ([1]; Table 2, 1 μg/mL) [µM]	Vmax ([1]; Table 2, 1 μg/mL) [µM/min]	n (Hill coefficient) ([1]; Table 2, 1 μg/mL)	Km ([1]; Table 2, 10 μg/mL) [µM]	Vmax ([1]; Table 2, 10 μg/mL) [µM/min]	n (Hill coefficient) ([1]; Table 2, 10 μg/mL)	Km ([1]; Table 2, 30 μg/mL) [µM]	Vmax ([1]; Table 2, 30 μg/mL) [µM/min]	n (Hill coefficient) ([1]; Table 2, 30 μg/mL)	Vmax ([2]; OPM2, 1 μg/mL) [µM/min]	effect on DUB activity vs DMSO control ([2]; OPM2, 1 μg/mL)	Vmax ([2]; OPM2, 10 μg/mL) [µM/min]	effect on DUB activity vs DMSO control ([2]; OPM2, 10 μg/mL)	other results
COc1ccc(C(=O)CCc2ccc(O)cc2)c(O)c1 [DMC-1, 1-(2-hydroxy-4-methoxyphenyl)-3-(4-hydroxyphenyl)propan-1-one]	7.03 ± 1.10	significantly inhibiting	9.19 ± 0.78	significantly inhibiting	12.91 ± 1.45	significantly enhanced	positive linear effect	21	0.00703	1.33	26	0.00919	1.64	29.3	0.0129	1.07	33.06 ± 5.08	significantly inhibiting	27.93 ± 4.80	significantly inhibiting	Vmax ([2]; OPM2, 30 μg/mL): 233.44 ± 27.31 µM/min; effect on DUB activity vs DMSO control ([2]; OPM2, 30 μg/mL): significantly enhanced; effect of increasing concentration on DUB activity (normalized Vmax) ([2]; OPM2): exponential increase; Km ([2]; Table 2, OPM-2, 1 μg/mL): 61.4 µM; n (Hill coefficient) ([2]; Table 2, OPM-2, 1 μg/mL): 1.29; Vmax [2, 5]: 33.06±; Km ([2]; Table 2, OPM-2, 10 μg/mL): 46.3 µM; n (Hill coefficient) ([2]; Table 2, OPM-2, 10 μg/mL): 1.40; Vmax [2, 6]: 27.93; Km ([2]; Table 2, OPM-2, 30 μg/mL): 140 µM; n (Hill coefficient) ([2]; Table 2, OPM-2, 30 μg/mL): 0.93; Vmax [2, 7]: 233.44; viability at 16 h, 1 μg/mL [3]: ~95%; viability at 16 h, 30 μg/mL [3]: ~55%; viability at 16 h, 1 μg/mL [4]: ~100%; viability at 16 h, 30 μg/mL [4]: ~60%
O=C(CCc1ccc(O)cc1)c1ccc(O)cc1O [DVG, 1-(2,4-dihydroxyphenyl)-3-(4-hydroxyphenyl)propan-1-one]	12.72 ± 0.78	significantly enhanced	12.23 ± 1.30	significantly enhanced	6.48 ± 0.54	significantly inhibited	negative linear effect	30.2	0.0127	2.01	39.2	0.0122	1.92	38.4	0.00648	1.51	23.32 ± 1.58	significantly enhanced	24.76 ± 1.84	significantly enhanced	effect on DUB activity (summary) [1]: inhibit; effect on DUB activity (summary) ([2]; OPM2): enhance; Vmax ([2]; OPM2, 30 μg/mL): 315.24 ± 41.65 µM/min; effect on DUB activity vs DMSO control ([2]; OPM2, 30 μg/mL): significantly enhanced; effect of increasing concentration on DUB activity (normalized Vmax) ([2]; OPM2): exponential increase; Km ([2]; Table 2, OPM-2, 1 μg/mL): 56.4 µM; n (Hill coefficient) ([2]; Table 2, OPM-2, 1 μg/mL): 0.82; Vmax [2, 5]: 23.32; Km ([2]; Table 2, OPM-2, 10 μg/mL): 45.5 µM; n (Hill coefficient) ([2]; Table 2, OPM-2, 10 μg/mL): 1.78; Vmax [2, 6]: 24.76; Km ([2]; Table 2, OPM-2, 30 μg/mL): 89.4 µM; n (Hill coefficient) ([2]; Table 2, OPM-2, 30 μg/mL): 1.34; Vmax [2, 7]: 315.24; viability at 16 h, 1 μg/mL [3]: ~105%; viability at 16 h, 30 μg/mL [3]: ~80%; viability at 16 h, 1 μg/mL [4]: ~90%; viability at 16 h, 30 μg/mL [4]: ~60%
Cc1cc(C(=O)CN2CCCC2)c(C)n1-c1ccc(F)cc1 [IU1]	–	–	–	–	–	–	–	–	–	–	–	–	–	–	–	–	–	–	–	–	effect on DUB activity vs control (DUB; 25 μM): inhibit; effect on DUB activity vs control (DUB; 50 μM): inhibit
